Consider 89 molecules from a melting point compilation (Tetko et al.; mined from patent text by program, amines drawn as free bases though some values may be those of a salt).

Some results are limits rather than exact numbers.

One may read the melting point as the temperature, or range, at which the solid turns liquid. In the case of `C#CCCCOc1c(C)cc(C(N)=O)cc1C`, the melting point lay in the range of 81 to 84 °C.
Take `COC(=O)c1c(C)nc(C)c(C(=O)OC)c1-c1ccccc1[N+](=O)[O-]`: the melting point lay in the range of 99 to 101 °C.
For the molecule `COC(=O)c1c(Cl)c(-c2cccc(C(F)(F)F)c2)nn1C`, the melting point lay within 97 to 98 °C.
The result for `CCCCC1(c2cccc(O)c2)CCCCN(C)C1=O` (centres undefined) reads 138 to 142 °C.
`CNc1nc(-c2cccc(NC(=O)c3ccnc(Cl)c3)c2)c2cc(OC)c(OC)cc2n1` displayed a melting point of 151 to 153 °C.
The result for `Cc1ccc(C)c(OCc2ccccc2C(=O)c2ccnn2C)c1` reads 88 to 89 °C.
In turn, `COC(=O)[C@H]1C=C(c2ccc(Br)cc2)OC(=O)[C@H]1Cc1ccccc1` displayed a melting point of 139 to 141 °C.
In the case of `O=C(c1cc2ccccc2[nH]1)N1CCOCC1Cl` (centres undefined) it was 254 to 255 °C.
In the case of `O=C1CC2(CCCC2)C1(Cl)CC(Cl)(Cl)Cl` (centres undefined) it was 70 to 73 °C.
Regarding `CCCCc1nc(Cl)c(CO)n1Cc1ccc(-c2ccccc2-c2nnnn2-c2ccc([N+](=O)[O-])cc2)cc1`, the melting point was in the range of 182 to 186 °C.
In the case of `COc1cc2c(c3c1OC(C)(C)C3)C(c1cccc(NC(C)=O)c1)=NC(C)(C)C2` it was 246 to 247 °C.
The result for `CCC(=NO)c1ccc(Sc2cc(F)cc([C@@]3(OC)CCO[C@@H]3C)c2)cc1` (racemic) reads 113 to 114 °C.
On to `COc1ccc(C)c(NC(=O)CC2C3CC4CC(C3)CC2C4)c1` (centres undefined), for which the melting point lay in the range of 193 to 196 °C.
The result for `COc1cc(-c2cc3ccccc3[nH]2)ccc1O` reads 165 °C; that for `O=C(CCl)N1CC(c2ccccc2)c2ccccc21` (centres undefined), 76 to 78 °C.
In the case of `CCOC(=O)/C=C(\C)c1ccc(C2COc3c(C)c(C)c(NC(=O)CC(C)(C)C)c(C)c32)cc1` (centres undefined) it was 179 to 180 °C; in that of `O=C(O)CCC(=O)c1c(-c2ccccc2)cc2ccccn12`, 131 to 133 °C.
In the case of `N#CNc1cccc2ccccc12` it was 132 to 133 °C; in that of `O=C(O)C1Cc2c(c(Cl)cc3c(-c4c(F)cccc4F)noc23)O1` (centres undefined), 240 to 241 °C.
`CN1C(=O)C(C(=O)Nc2ccc(OC(F)(F)F)c(Cl)c2)C(=O)N(C)C1=O` showed a melting point of 160 °C.
In the case of `CC(=O)c1ccc(Cl)cn1` it was 58 to 65 °C; in that of `NC(=O)c1nnn(Cc2ccc(C(Cl)=C(Cl)Cl)cc2)c1N`, 200 to 203 °C.
In the case of `CCOC(=O)c1nnc2ccc(N3C(=O)C=CC3=O)cc2c1O` it was 257 to 260 °C.
Turning to `CCc1oc2ccccc2c1C(=O)NCc1ccc2c(Br)c(OCC#N)ccc2c1`, the melting point was in the range of 181 to 183 °C.
The result for `C=C(C(=O)OC)c1ccc2c(=O)c3ccccc3ccc2c1` reads 153 to 156 °C.
Molecule `CC#CCOc1ccc(S(=O)C(C(=O)NO)c2cccc3ccccc23)cc1` (centres undefined) had a melting point of 159 °C.
Molecule `C[C@H]1Oc2ccc(F)cc2N(C)C(=O)[C@H]1NC(=O)OC(C)(C)C` displayed a melting point of 129 to 133 °C.
The result for `CCOC(=O)c1cn(CCO)c2nc(N3CCN(C)CC3)ncc2c1=O` reads 197 to 199 °C; that for `O=C(NC(CO)c1ccccc1)c1ccccc1` (centres undefined), 235 to 236 °C; that for `CN1C(=O)C(C)(C)N=C(c2ccccc2F)c2c1ccc(N)c2Br`, 217 to 220 °C.
The result for `COC(=O)C(COc1ccc(Cl)cc1C#N)Oc1ccccc1Cl` (centres undefined) reads 105 °C; that for `COC(=O)C=Cc1ccc(OCC2CN(c3ccccc3)C(=O)O2)cc1` (centres undefined), 179 to 181 °C; that for `CC(C)C(OC(=O)NC(C)(Cc1ccccc1)C(=O)NC(Cc1ccc(O)cc1)C(=O)NCCCCCCCO)c1ccccc1` (centres undefined), 70 to 76 °C.
The result for `O=C(NCCO)c1ccnc(-c2cccc3cc(Cc4cc(F)cc(Cl)c4)sc23)c1` reads 172 to 173 °C.
Turning to `CC1=NN(c2ccc(CO)cc2)C(=O)C1`, the melting point lay within 139 to 140 °C.
`COc1cc(C(=O)Nc2ccc(S(=O)(=O)C(F)(F)F)cc2Cl)c(O)c(C(C)(C)C)c1` displayed a melting point of 126 to 127 °C.
Take `CC(C)(C)NCC(O)c1ccc(N)c(C#N)c1` (centres undefined): the melting point lay within 181 to 185 °C.
In the case of `CCCCN(Cc1ccc2c(Br)c(OCc3nnn[nH]3)ccc2c1)C(=O)c1c(C)oc2ccccc12`, the melting point lay within 204 to 206 °C.
Turning to `Cc1c(OCCn2ccnc2)ccc2c1CC/C(=C\c1cccs1)C2=O`, the melting point is 182 to 184 °C.
The result for `O=c1nc(-c2ccco2)sc2ccccc12` reads 170 to 172 °C.
The molecule `COC(=O)c1ccc(N)c(NC(=O)c2ccc(C(C)(C)C)cc2)c1` gave a melting point of 175 °C.
Consider `COc1ccc2c(c1O)C13CCNC(C2)C1CC(C)C(=O)C3` (centres undefined), for which the melting point is 163 to 165 °C.
In the case of `CS(=O)c1ccc(-n2[nH]c3ccccc3c2=O)cc1` (centres undefined) it was 208 to 210 °C; in that of `CC(Oc1ccc(Oc2cnc3cc(Cl)ccc3n2)cc1)C(=O)Nc1ccc(OC(F)(F)CF)cc1` (centres undefined), 137 to 140 °C; in that of `O=S1(=O)c2cccc3c(Cl)cc(Cl)c(c23)N1CCCN1CC=C(c2ccccc2)CC1`, 126 °C.
As to `CCOc1ncc(C(C)=O)cc1C(=O)Nc1c(C(N)=O)nn(CC2CC2)c1CC`, the melting point lay within 238 to 240 °C.
The result for `CCOP(=O)(/C=C/c1cn(-c2ccccc2)nc1OCc1ccc(OCc2nc(-c3ccco3)oc2C)c(C(=O)O)c1)OCC` reads 169 to 170 °C; that for `CN(C)S(=O)(=O)N(C)c1cccc2cc(-c3nccs3)[nH]c12`, 123 °C; that for `O=C(NCCN1CCN(C(c2ccccc2)c2ccncc2)CC1)C1CSC(c2cccnc2)N1` (centres undefined), 160 to 162 °C.
In the case of `Cc1ccc(C2=CCNCC2)nc1` it was 78 to 80 °C; in that of `Cc1ccc2cccc(OCc3cccc(N(C)C(=O)CN4C(=O)c5ccccc5C4=O)c3C)c2n1`, 158 to 161 °C; in that of `CCOC(=O)c1c(N2CCNCC2)c2cc(C)ccc2n(-c2ccccc2)c1=O`, 181 °C.
Regarding `COc1cc2ncc(NC(=O)C=Cc3cc(OC)c(OC(C)=O)c(OC)c3)c(-c3ccccc3)c2cc1OC`, the melting point is 256 to 257 °C.
In turn, `CCOc1ccc(CCC=[N+]([O-])C(C)(C)C)cc1` registered a melting point of 54 to 57 °C.
The result for `CCOC(=O)c1cn(Cc2ccccc2)nc1N(Cc1ccccc1)C(=O)Nc1ccccc1` reads 116 to 117 °C; that for `COc1ccc(C(=O)Nc2ccc3ccc(Oc4ccccc4)nc3n2)cc1`, 160 °C.
As for `COc1c(Cl)ccc(-c2nc(C=O)c(Cl)c(N)c2F)c1F`, the melting point fell in the range of 192 to 196 °C.
In turn, `CC(C)[Si]1(C(C)C)C([Si](C)(C)C)=C(c2ccccc2)C(c2ccccc2)=C1[Si](C)(C)C` came in with a melting point of 107 °C.
Take `CCOC(=O)CN1C(=O)CN2CC(=O)NN=C21`: the melting point was 188 to 193 °C.
The result for `Cc1c(Br)c(N2CC[C@H](N(C)C)C2)c2oc(C3CC3)nc2c1C#N` reads 82 to 86 °C; that for `O=C(NCc1ccncc1)c1cc2ccnc(N(Cc3ccccc3)Cc3ccccc3)c2[nH]1`, 119 to 120 °C; that for `CCCCOC(=O)/C=C/c1ccc2c(=O)n(CC(C)C)c(CNC(=O)OC(C)(C)C)c(-c3ccc(Cl)cc3)c2c1`, 149 to 150 °C.
The result for `CC(C)Cc1ccc2oc(=O)c(=O)oc2c1` reads 92 to 97 °C.
In the case of `CCn1cccc1C(N)=S` it was 71.5 to 74.5 °C; in that of `CCc1noc(-c2cc3c(cn2)[nH]c2ccccc23)n1`, 146 to 149 °C.
With `CC(C)(c1cc(Cl)ccc1O)c1cc(Cl)ccc1O`, the melting point came to 142 °C.
In the case of `CC(C)c1ccc(-n2c(CC(=O)O)c(C(=O)O)c3cc(Oc4ccc(Cl)c(Cl)c4)ccc32)cc1` it was 174 to 180 °C.
The result for `Cc1cc(=O)[nH]n(Cc2ccccc2)c1=O` reads > 200 °C; that for `COc1cc2c(CC#N)c[nH]c2cc1F`, 97 to 98 °C.
The result for `N#Cc1ccc(Cc2ccc(-c3ccc(C#N)cn3)o2)cc1` reads 204 to 206 °C; that for `CS(=O)(=O)c1ccc(C(CC2CCCC2)C(=O)Nc2ccccn2)cc1[N+](=O)[O-]` (centres undefined), 92 to 95 °C.
In turn, `CCOc1ccc(C2=NN(C3CCN(S(C)(=O)=O)CC3)C(=O)[C@@H]3CC=CC[C@H]23)cc1OCC` displayed a melting point of 99 to 102 °C.
The result for `O=C(Nc1cccc(Nc2ccc3c(c2)NC(=O)C3=Cc2ccc[nH]2)c1)Nc1cc(F)c(F)cc1F` reads 224 to 226 °C; that for `Cc1nc2c(C(=O)NC(C)(C(N)=O)C(C)C)cc(C(=O)O)cc2n1C` (centres undefined), 246 to 248 °C.
In the case of `O=C(O)CC(=O)Nc1ccccc1CCNC(=O)/C(=C/c1c[nH]c2ccccc12)NC(=O)OC1C2CC3CC(C2)CC1C3` (centres undefined) it was 112 to 120 °C; in that of `C=C1NC(=O)OC12CCN(Cc1ccccc1)CC2`, 169 to 170 °C; in that of `CC1(C(F)(F)F)OC(=O)Nc2ccc(Cl)cc21` (centres undefined), 216 °C.
As for `CC(C)c1csc2[nH]c(=O)c(=O)[nH]c12`, the melting point was > 250 °C.
The result for `Cc1cc(C)nc(NC(=O)NS(=O)(=O)c2csnc2Cl)n1` reads 136 to 140 °C; that for `O=C1Nc2ccccc2C12COc1cc(OC(F)(F)F)ccc12` (centres undefined), 180 to 182 °C; that for `CC1(C)OC(C=Cc2ccoc2)=CC1=O`, 79 to 80 °C.
Molecule `CCN(CC)CCNc1nc2cccnc2n(-c2ccc(Cl)cc2)c1=O` showed a melting point of 149 to 150 °C.
The result for `O=C(CC(NC(=O)Cc1ccccc1)c1ccccc1)Nc1n[nH]c(=S)s1` (centres undefined) reads 249 to 250 °C; that for `CCn1cc(C(=O)O)c(=O)c2cc(F)c(N3CCNC(c4ccco4)C3)cc21` (centres undefined), 198 °C; that for `O=c1[nH]c2c(Cl)c(Cl)ccc2s1`, 229 °C.
In the case of `CCOC(=O)NN=C(CO)c1cccc(Cl)c1` it was 109 to 110 °C.
Turning to `Cc1cc(OCCCN2CCC[C@H]2C)ccc1C1=NNC(=O)CC1`, the melting point was in the range of 121 to 123 °C.
The result for `CNC(=O)C(Cc1ccccc1)NC(=O)Nc1n[nH]c(=S)s1` (centres undefined) reads 228 °C.
In turn, `N#CC(=NO)c1cccc(C(=O)c2ccccc2)c1` came in with a melting point of 147 to 148 °C.
